# Measured values as given in patent publication US20100105081A1, “DETECTING FUNGI IN HUMAN SAMPLES” (MAYO MEDICAL VENTURES, priority 2004, published 2010).
# Tested on: Alternaria
# Experiment: Total Alternaria polypeptides in nasal secretions of CRS patients before and after treatment (competitive immunoassay)
# Format: in vivo, human
# Conditions: nasal secretion supernatants, change from baseline after treatment, N=6, paired samples
# Procedure: Nasal secretions were obtained under endoscopic guidance using a sterile sinus secretion collector (Xomed Surgical Produces, Jacksonville, Fla.) from CRS patients before and after treatment with either placebo or amphotericin B. Each secretion specimen was extracted by adding twice the volume of 0.9% NaCl, vortexing, and centrifugation. The supernatants were stored at −20° C. To monitor changes in fungal antigen burden with treatment, total Alternaria polypeptides in nasal secretions were immunochemically quantitated essentially as described for latex polypeptides. Briefly, samples and a standard extract from Alternaria alternata competed with solid-phase Alternaria alternata polypeptides for rabbit anti-Alternaria IgG antibodies (ALK-Abello, Round Rock, Tex.). Radiolabeled, affinity-purified, goat anti-rabbit IgG was used for detection. The results are expressed as mass polypeptide per mL nasal secretion supernatants. The detection limit of the assay was 12 ng/mL for total Alternaria polypeptides. Sufficient quantities of mucus were not available to perform all the assays for each patient. The analyses were performed based on the availability of paired samples.
smiles,measurement,value
"C[C@@H]1[C@H](O)[C@@H](C)/C=C/C=C/C=C/C=C/C=C/C=C/C=C/[C@H](O[C@@H]2O[C@H](C)[C@@H](O)[C@H](N)[C@@H]2O)C[C@@H]2O[C@](O)(C[C@@H](O)C[C@@H](O)[C@H](O)CC[C@@H](O)C[C@@H](O)CC(=O)O[C@H]1C)C[C@H](O)[C@H]2C(=O)O [Amphotericin B, amphotericin B]","Alternaria μg/mL, median change after treatment",-0.30 µg/mL
same,"Alternaria μg/mL, range for change after treatment",-4.64 to 3.21 µg/mL
